Earlier results on 1 compound are cited in PubChem BioAssay AID1259409 (Chemical Carcinogenesis Research Information System (CCRIS), 2018).

This data set relates to rodent chemically induced tumor inhibition, incidence and multiplicity. Briefly: CCRIS tumor inhibitor studies. The conditions noted are these: Dose [Inhibitor]: 0.

For the compound `O=c1oc2c(O)c(O)cc3c(=O)oc4c(O)c(O)cc1c4c23`, the “tumour outcome (control, treated, inhibition, significance)” value (Carcinogen: AZOXYMETHANE, 25843-45-2, 4000 PPM IN DIET BEGINNING PRIOR TO CARCINOGEN DOSE AND CONTINUING FOR DURATION OF STUDY (STUDY DURATION: 54 WK), Route [Inhibitor]: ORAL, Species: RAT, Strain/Sex: F344/MALE, Target Tissue: Type of Lesion: SMALL INTESTINE: ADENOCARCINOMA, Dose [Carcinogen]: 15 MG/KG 1/WK FOR 2 WK, Promoter: NONE USED) is given as 50%, 36%, 28%, not calculated; the “tumour outcome (control, treated, inhibition, significance)” value (Carcinogen: AZOXYMETHANE, 25843-45-2, 4000 PPM IN DIET BEGINNING PRIOR TO CARCINOGEN DOSE AND CONTINUING FOR DURATION OF STUDY (STUDY DURATION: 54 WK), Route [Inhibitor]: ORAL, Species: RAT, Strain/Sex: F344/MALE, Target Tissue: Type of Lesion: SMALL INTESTINE: ADENOMA, Dose [Carcinogen]: 15 MG/KG 1/WK FOR 2 WK, Promoter: NONE USED) was 3%, 0%, 100%, not calculated; the “tumour outcome (control, treated, inhibition, significance)” value (Carcinogen: AZOXYMETHANE, 25843-45-2, 4000 PPM IN DIET FOR 56 WK BEGINNING 2 WK PRIOR TO CARCINOGEN TREATMENT (STUDY DURATION: 56 WK), Route [Inhibitor]: ORAL, Species: RAT, Strain/Sex: F344/MALE, Target Tissue: Type of Lesion: COLON (DISTAL): TUMOR, Dose [Carcinogen]: 15 MG/KG 1/WK FOR 2 WK, Promoter: NONE USED) is listed as 47%, 47%, 0%, not significant; the “tumour outcome (control, treated, inhibition, significance)” value (Carcinogen: AZOXYMETHANE, 25843-45-2, 4000 PPM IN DIET FOR 56 WK BEGINNING 2 WK PRIOR TO CARCINOGEN TREATMENT (STUDY DURATION: 56 WK), Route [Inhibitor]: ORAL, Species: RAT, Strain/Sex: F344/MALE, Target Tissue: Type of Lesion: COLON (PROXIMAL): TUMOR, Dose [Carcinogen]: 15 MG/KG 1/WK FOR 2 WK, Promoter: NONE) is on record as 39%, 44%, -13%, not significant; the “tumour outcome (control, treated, inhibition, significance)” value (Carcinogen: AZOXYMETHANE, 25843-45-2, 8000 PPM IN DIET BEGINNING PRIOR TO CARCINOGEN DOSE AND CONTINUING FOR DURATION OF STUDY (STUDY DURATION: 54 WK), Route [Inhibitor]: ORAL, Species: RAT, Strain/Sex: F344/MALE, Target Tissue: Type of Lesion: COLON: ADENOCARCINOMA, Dose [Carcinogen]: 15 MG/KG 1/WK FOR 2 WK, Promoter: NONE USED) is on record as 72%, 64%, 11%, not calculated; the “tumour outcome (control, treated, inhibition, significance)” value (Carcinogen: AZOXYMETHANE, 25843-45-2, 8000 PPM IN DIET BEGINNING PRIOR TO CARCINOGEN DOSE AND CONTINUING FOR DURATION OF STUDY (STUDY DURATION: 54 WK), Route [Inhibitor]: ORAL, Species: RAT, Strain/Sex: F344/MALE, Target Tissue: Type of Lesion: COLON: ADENOMA, Dose [Carcinogen]: 15 MG/KG 1/WK FOR 2 WK, Promoter: NONE USED) is listed as 14%, 3%, 76%, not calculated. Further, the “tumour outcome (control, treated, inhibition, significance)” value reads like this: (Carcinogen: AZOXYMETHANE, 25843-45-2, 8000 PPM IN DIET BEGINNING PRIOR TO CARCINOGEN DOSE AND CONTINUING FOR DURATION OF STUDY (STUDY DURATION: 54 WK), Route [Inhibitor]: ORAL, Species: RAT, Strain/Sex: F344/MALE, Target Tissue: Type of Lesion: SMALL INTESTINE: ADENOCARCINOMA, Dose [Carcinogen]: 15 MG/KG 1/WK FOR 2 WK, Promoter: NONE USED) 50%, 28%, 44%, not calculated; (Carcinogen: AZOXYMETHANE, 25843-45-2, 8000 PPM IN DIET BEGINNING PRIOR TO CARCINOGEN DOSE AND CONTINUING FOR DURATION OF STUDY (STUDY DURATION: 54 WK), Route [Inhibitor]: ORAL, Species: RAT, Strain/Sex: F344/MALE, Target Tissue: Type of Lesion: SMALL INTESTINE: ADENOMA, Dose [Carcinogen]: 15 MG/KG 1/WK FOR 2 WK, Promoter: NONE USED) 3%, 0%, 100%, not calculated; (Carcinogen: AZOXYMETHANE, 25843-45-2, 8000 PPM IN DIET FOR 56 WK BEGINNING 2 WK PRIOR TO CARCINOGEN TREATMENT (STUDY DURATION: 56 WK), Route [Inhibitor]: ORAL, Species: RAT, Strain/Sex: F344/MALE, Target Tissue: Type of Lesion: COLON(DISTAL): TUMOR, Dose [Carcinogen]: 15 MG/KG 1/WK FOR 2 WK, Promoter: NONE USED) 47%, 47%, 0%, not significant; (Carcinogen: AZOXYMETHANE, 25843-45-2, 8000 PPM IN DIET FOR 56 WK BEGINNING 2 WK PRIOR TO CARCINOGEN TREATMENT (STUDY DURATION: 56 WK), Route [Inhibitor]: ORAL, Species: RAT, Strain/Sex: F344/MALE, Target Tissue: Type of Lesion: COLON(PROXIMAL): TUMOR, Dose [Carcinogen]: 15 MG/KG 1/WK FOR 2 WK, Promoter: NONE USED) 39%, 30%, 23%, not significant; (Carcinogen: BENZO[A]PYRENE, 50-32-8, 300 NMOL (TOTAL DOSE) APPLIED 10 MIN PRIOR TO CARCINOGEN DOSE INJECTED AS 1/7, 2/7, AND 4/7 OF THE TOTAL ON DAYS 1, 8, Route [Inhibitor]: INTRAPERITONEAL, Species: MOUSE, Strain/Sex: ICR/MALE, FEMALE, Target Tissue: Type of Lesion: LUNG: TUMOR, Dose [Carcinogen]: 450 NMOL (TOTAL DOSE) INJECTED IN DOSES OF 1/7, 2/7, AND 4/7 ON DAYS 1, 8, AND 15 OF LIFE, RESPECTIVELY, Promoter: NONE USED) 74%, 75%, -1%, not significant.
